Source: PubChem BioAssay (NCI)
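These data come from cells grown in 96-well plates and exposed to compound for 48 hours at five concentrations. At the GI50, growth is halved. TGI: concentration producing complete growth inhibition.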

What was measured:
Assay in all cases: inhibition of tumour cell growth, NCI panel, 48 h; in the data active means GI50 below about 0.43 µM; inactive means the rest
786-0 renal = test system: 786-0 renal
A549 NSCLC = test system: A549 NSCLC
ACHN renal = test system: ACHN renal
BT-549 breast = test system: BT-549 breast
CAKI-1 renal = test system: CAKI-1 renal
CCRF-CEM leukemia = test system: CCRF-CEM leukemia
COLO 205 colon = test system: COLO 205 colon
DU-145 prostate = test system: DU-145 prostate
EKVX NSCLC = test system: EKVX NSCLC
HCC-2998 colon = test system: HCC-2998 colon
HCT-116 colon = test system: HCT-116 colon
HCT-15 colon = test system: HCT-15 colon
HL-60(TB) leukemia = test system: HL-60(TB) leukemia
HOP-62 NSCLC = test system: HOP-62 NSCLC
HOP-92 NSCLC = test system: HOP-92 NSCLC
HS 578T breast = test system: HS 578T breast
HT29 colon = test system: HT29 colon
IGROV1 ovarian = test system: IGROV1 ovarian
K-562 leukemia = test system: K-562 leukemia
KM12 colon = test system: KM12 colon
LOX IMVI melanoma = test system: LOX IMVI melanoma
M14 melanoma = test system: M14 melanoma
MALME-3M melanoma = test system: MALME-3M melanoma
MCF7 breast = test system: MCF7 breast
MDA-MB-231 breast = test system: MDA-MB-231 breast
MDA-MB-435 = test system: MDA-MB-435
MOLT-4 leukemia = test system: MOLT-4 leukemia
NCI-H226 lung = test system: NCI-H226 lung
NCI-H23 lung = test system: NCI-H23 lung
NCI-H460 lung = test system: NCI-H460 lung
NCI-H522 lung = test system: NCI-H522 lung
NCI/ADR-RES ovarian = test system: NCI/ADR-RES ovarian
OVCAR-3 ovarian = test system: OVCAR-3 ovarian
OVCAR-4 ovarian = test system: OVCAR-4 ovarian
OVCAR-5 ovarian = test system: OVCAR-5 ovarian
OVCAR-8 ovarian = test system: OVCAR-8 ovarian
PC-3 prostate = test system: PC-3 prostate
RPMI-8226 leukemia = test system: RPMI-8226 leukemia
RXF 393 renal = test system: RXF 393 renal
SF-268 CNS = test system: SF-268 CNS
SF-295 CNS = test system: SF-295 CNS
SF-539 CNS = test system: SF-539 CNS
SK-MEL-2 melanoma = test system: SK-MEL-2 melanoma
SK-MEL-28 melanoma = test system: SK-MEL-28 melanoma
SK-MEL-5 melanoma = test system: SK-MEL-5 melanoma
SK-OV-3 ovarian = test system: SK-OV-3 ovarian
SN12C renal = test system: SN12C renal
SNB-19 CNS = test system: SNB-19 CNS
SNB-75 CNS = test system: SNB-75 CNS
SR leukemia = test system: SR leukemia
SW-620 colon = test system: SW-620 colon
T-47D breast = test system: T-47D breast
TK-10 renal = test system: TK-10 renal
U251 CNS = test system: U251 CNS
UACC-257 melanoma = test system: UACC-257 melanoma
UACC-62 melanoma = test system: UACC-62 melanoma
UO-31 renal = test system: UO-31 renal

CCc1ccccc1-n1c(N)c(C#N)c(-c2ccc(OC)c(OC)c2)c(C#N)c1=O
55.3 µM: TGI (OVCAR-5 ovarian)
63 µM: TGI (OVCAR-4 ovarian)
34.3 µM: TGI (HOP-62 NSCLC)
40.4 µM: TGI (MALME-3M melanoma)
35.3 µM: TGI (RXF 393 renal)
35.8 µM: TGI (MDA-MB-231 breast)
44.8 µM: TGI (NCI-H522 lung)
53.7 µM: TGI (ACHN renal)
41.3 µM: TGI (HS 578T breast)
31.6 µM: TGI (SF-268 CNS)
39.4 µM: TGI (TK-10 renal)
29.8 µM: TGI (U251 CNS)
33.3 µM: TGI (786-0 renal) | TGI (NCI-H23 lung)
60 µM: TGI (IGROV1 ovarian)
61.1 µM: TGI (SF-295 CNS)
32.1 µM: TGI (SNB-75 CNS)
72.6 µM: TGI (UACC-257 melanoma)
37.7 µM: TGI (UACC-62 melanoma)
28.3 µM: TGI (SF-539 CNS)
33.5 µM: TGI (MCF7 breast)
56 µM: TGI (M14 melanoma)
80.6 µM: TGI (SK-MEL-2 melanoma)
active: GI50 (HOP-92 NSCLC) 0.283 µM
33.1 µM: TGI (OVCAR-3 ovarian)
92.2 µM: TGI (LOX IMVI melanoma)
45.1 µM: TGI (SN12C renal)
31.1 µM: TGI (HCT-116 colon)
59 µM: TGI (SNB-19 CNS)
> 100 µM: TGI (A549 NSCLC) | TGI (CAKI-1 renal) | TGI (CCRF-CEM leukemia) | TGI (COLO 205 colon) | TGI (DU-145 prostate) | TGI (EKVX NSCLC) | TGI (HCC-2998 colon) | TGI (HCT-15 colon) | TGI (HL-60(TB) leukemia) | TGI (HT29 colon) | TGI (K-562 leukemia) | TGI (MDA-MB-435) | TGI (MOLT-4 leukemia) | TGI (NCI/ADR-RES ovarian) | TGI (RPMI-8226 leukemia) | TGI (SK-MEL-5 melanoma) | TGI (SR leukemia) | TGI (SW-620 colon) | TGI (T-47D breast) | TGI (UO-31 renal)
32.8 µM: TGI (PC-3 prostate)
41.8 µM: TGI (NCI-H226 lung) | TGI (SK-MEL-28 melanoma)
inactive: GI50 (786-0 renal) 18.8 µM | GI50 (A549 NSCLC) 34.4 µM | GI50 (ACHN renal) 19.7 µM | GI50 (BT-549 breast) 19.4 µM | GI50 (CAKI-1 renal) > 100 µM | GI50 (CCRF-CEM leukemia) > 100 µM | GI50 (COLO 205 colon) > 100 µM | GI50 (DU-145 prostate) 29.6 µM | GI50 (EKVX NSCLC) 41.1 µM | GI50 (HCC-2998 colon) 31.9 µM | GI50 (HCT-116 colon) 17 µM | GI50 (HCT-15 colon) 37.4 µM | GI50 (HL-60(TB) leukemia) > 100 µM | GI50 (HOP-62 NSCLC) 17.1 µM | GI50 (HS 578T breast) 15.5 µM | GI50 (HT29 colon) 41 µM | GI50 (IGROV1 ovarian) 19.5 µM | GI50 (K-562 leukemia) > 100 µM | GI50 (KM12 colon) 16.9 µM | GI50 (LOX IMVI melanoma) 23.6 µM | GI50 (M14 melanoma) 19.7 µM | GI50 (MALME-3M melanoma) 17.4 µM | GI50 (MCF7 breast) 16.9 µM | GI50 (MDA-MB-231 breast) 17.1 µM | GI50 (MDA-MB-435) 34.7 µM | GI50 (MOLT-4 leukemia) > 100 µM | GI50 (NCI-H226 lung) 17.1 µM | GI50 (NCI-H23 lung) 17 µM | GI50 (NCI-H460 lung) 19.3 µM | GI50 (NCI-H522 lung) 19 µM | GI50 (NCI/ADR-RES ovarian) 31.9 µM | GI50 (OVCAR-3 ovarian) 17.3 µM | GI50 (OVCAR-4 ovarian) 23.1 µM | GI50 (OVCAR-5 ovarian) 20.5 µM | GI50 (OVCAR-8 ovarian) 18.5 µM | GI50 (PC-3 prostate) 15.4 µM | GI50 (RPMI-8226 leukemia) 43.1 µM | GI50 (RXF 393 renal) 16.3 µM | GI50 (SF-268 CNS) 16.2 µM | GI50 (SF-295 CNS) 22.4 µM | GI50 (SF-539 CNS) 15 µM | GI50 (SK-MEL-2 melanoma) 25.8 µM | GI50 (SK-MEL-28 melanoma) 20.1 µM | GI50 (SK-MEL-5 melanoma) 32.7 µM | GI50 (SK-OV-3 ovarian) 17.7 µM | GI50 (SN12C renal) 19 µM | GI50 (SNB-19 CNS) 20.5 µM | GI50 (SNB-75 CNS) 17.8 µM | GI50 (SR leukemia) 15 µM | GI50 (SW-620 colon) 33.3 µM | GI50 (T-47D breast) 27.2 µM | GI50 (TK-10 renal) 18 µM | GI50 (U251 CNS) 16.1 µM | GI50 (UACC-257 melanoma) 23.9 µM | GI50 (UACC-62 melanoma) 16.3 µM | GI50 (UO-31 renal) 25.5 µM
38.5 µM: TGI (NCI-H460 lung)
36.6 µM: TGI (SK-OV-3 ovarian)
49.5 µM: TGI (BT-549 breast)
29 µM: TGI (HOP-92 NSCLC)
34.6 µM: TGI (KM12 colon)
37.6 µM: TGI (OVCAR-8 ovarian)
